PubChem BioAssay (NCI)
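How tested: cells in 96-well plates exposed to compound for 48 hours at five concentrations. TGI denotes the concentration required for complete inhibition of growth.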

Tests used:
Assay in all cases: inhibition of tumour cell growth, NCI panel, 48 h
786-0 renal = tested on: 786-0 renal
A498 renal = tested on: A498 renal
A549 NSCLC = tested on: A549 NSCLC
ACHN renal = tested on: ACHN renal
BT-549 breast = tested on: BT-549 breast
CAKI-1 renal = tested on: CAKI-1 renal
COLO 205 colon = tested on: COLO 205 colon
DU-145 prostate = tested on: DU-145 prostate
EKVX NSCLC = tested on: EKVX NSCLC
HCT-116 colon = tested on: HCT-116 colon
HCT-15 colon = tested on: HCT-15 colon
HOP-62 NSCLC = tested on: HOP-62 NSCLC
HOP-92 NSCLC = tested on: HOP-92 NSCLC
HS 578T breast = tested on: HS 578T breast
HT29 colon = tested on: HT29 colon
IGROV1 ovarian = tested on: IGROV1 ovarian
K-562 leukemia = tested on: K-562 leukemia
KM12 colon = tested on: KM12 colon
LOX IMVI melanoma = tested on: LOX IMVI melanoma
M14 melanoma = tested on: M14 melanoma
MALME-3M melanoma = tested on: MALME-3M melanoma
MCF7 breast = tested on: MCF7 breast
MDA-MB-231 breast = tested on: MDA-MB-231 breast
MDA-MB-435 = tested on: MDA-MB-435
MDA-N = tested on: MDA-N
NCI-H226 lung = tested on: NCI-H226 lung
NCI-H23 lung = tested on: NCI-H23 lung
NCI-H460 lung = tested on: NCI-H460 lung
NCI-H522 lung = tested on: NCI-H522 lung
NCI/ADR-RES ovarian = tested on: NCI/ADR-RES ovarian
OVCAR-3 ovarian = tested on: OVCAR-3 ovarian
OVCAR-4 ovarian = tested on: OVCAR-4 ovarian
OVCAR-5 ovarian = tested on: OVCAR-5 ovarian
OVCAR-8 ovarian = tested on: OVCAR-8 ovarian
PC-3 prostate = tested on: PC-3 prostate
RPMI-8226 leukemia = tested on: RPMI-8226 leukemia
RXF 393 renal = tested on: RXF 393 renal
SF-268 CNS = tested on: SF-268 CNS
SF-295 CNS = tested on: SF-295 CNS
SF-539 CNS = tested on: SF-539 CNS
SK-MEL-2 melanoma = tested on: SK-MEL-2 melanoma
SK-MEL-28 melanoma = tested on: SK-MEL-28 melanoma
SK-MEL-5 melanoma = tested on: SK-MEL-5 melanoma
SK-OV-3 ovarian = tested on: SK-OV-3 ovarian
SN12C renal = tested on: SN12C renal
SNB-19 CNS = tested on: SNB-19 CNS
SNB-75 CNS = tested on: SNB-75 CNS
SW-620 colon = tested on: SW-620 colon
T-47D breast = tested on: T-47D breast
TK-10 renal = tested on: TK-10 renal
U251 CNS = tested on: U251 CNS
UACC-257 melanoma = tested on: UACC-257 melanoma
UACC-62 melanoma = tested on: UACC-62 melanoma
UO-31 renal = tested on: UO-31 renal
CCRF-CEM leukemia = tested on: CCRF-CEM leukemia
DLD-1 colon = tested on: DLD-1 colon
DMS 114 small cell lung = tested on: DMS 114 small cell lung
DMS 273 small cell lung = tested on: DMS 273 small cell lung
HL-60(TB) leukemia = tested on: HL-60(TB) leukemia
KM20L2 colon = tested on: KM20L2 colon
LXFL 529 NSCLC = tested on: LXFL 529 NSCLC
M19-MEL melanoma = tested on: M19-MEL melanoma
MOLT-4 leukemia = tested on: MOLT-4 leukemia
SNB-78 CNS = tested on: SNB-78 CNS
SR leukemia = tested on: SR leukemia

Measured: TGI

COc1cccc(CSCC(=O)O)c1
not listed: CCRF-CEM leukemia | DLD-1 colon | DMS 114 small cell lung | DMS 273 small cell lung | HL-60(TB) leukemia | KM20L2 colon | LXFL 529 NSCLC | M19-MEL melanoma | MOLT-4 leukemia | SNB-78 CNS | SR leukemia
> 100 µM: all other assays above

CCn1c(SC(C)C(=O)c2c(C)n(C)n(-c3ccccc3)c2=O)nc2ccccc2c1=O (centres undefined)
not listed: BT-549 breast | CAKI-1 renal | DU-145 prostate | HS 578T breast | K-562 leukemia | MCF7 breast | MDA-MB-231 breast | MDA-MB-435 | MDA-N | NCI/ADR-RES ovarian | PC-3 prostate | RXF 393 renal | SNB-19 CNS | SW-620 colon | T-47D breast
> 100 µM: all other assays above
